Source: patent publication US20250002463A1, “NEW SALT FORMS OF AMILORIDE AND ITS DERIVATIVES FOR PHARMACEUTICAL USE” (PSOMRI Holding AB, priority 2021, published 2025)

Experiments:
[1] = Hygroscopicity by Dynamic Vapor Sorption (DVS); assay type: physicochemical
Procedure: The hygroscopic behaviour of the salts was evaluated through Dynamic Vapor Sorption (DVS) measurements with an RH profile 40-95-0-40% at 25° C. and a dm/dt of 0.002. The classification of the hygroscopic behaviour is based on the water vapour uptake at 25° C./80% RH in first adsorption cycle of sorption isotherm.

[2] = Aqueous solubility of salts, Example 1 (aliquot addition; HPLC after 24 h at RT; pH of solutions/mother liquors)
Procedure: The aqueous solubility of the salts was estimated qualitatively by the solvent aliquot addition method. Aliquots of water up to 500-600 μL were added to approximately 5 mg of salt. The solubility of the free base was also estimated.
The suspensions were let equilibrating at room temperature for 24 h. Afterwards, solids were separated from the liquid phases. The liquid phases were filtered and analyzed by HPLC to determine the solubility. The pH of solutions/mother liquors was also measured.
Suspensions of the two salts were prepared in water with a concentration of 9-10 mg/mL. The mixtures were let equilibrating at RT for 24 h. Afterwards, solids were separated from the liquid phases. The liquid phases were filtered and analyzed by HPLC to determine the solubility. The pH of mother liquors was also measured.

[3] = Physical stability under Accelerated Aging Conditions (AAC, 40° C./75% RH, 2 days), HT-XRPD; conditions: for Physical Stability: AAC 40° C./75% RH, 2 days, re-analyzed by HT-XRPD; for physical stability upon exposure to AAC: Example 2
Procedure: The solids were separated from the liquid phases by centrifugation, dried overnight under vacuum at 50° C. and analyzed by HT-XRPD. Solvents from the remaining mother liquors and solutions were evaporated under ambient conditions (evaporative crystallization experiments) and the residual solids were analyzed by HT-XRPD.
Slurries of the amorphous solids (GEN9 and GEN16, respectively) were prepared in 15 solvents at room temperature. The suspensions were subjected to a temperature profile, which comprised of three heating and cooling cycles. At the end of the temperature profile, the solids were isolated by centrifugation and dried at ambient conditions and under vacuum at 50° C. Upon completion of all crystallization experiments, all solids were analyzed by HT-XRPD.

[4] = Polymorphism: solid forms found in salt screen by HT-XRPD; assay type: physicochemical; conditions: Example 1 salt screen in MeOH, DME, THF
Procedure: (§1) The precipitated solids were analyzed by high throughput X-ray powder diffractometry (HT XRPD). Liquid phases (both solutions and mother liquors) were evaporated at ambient conditions and the residual solids were analyzed by HT XRPD.
The salt screen experiments were carried out in methanol (MeOH), 1,2-dimethoxyethane (DME) and tetrahydrofuran (THF).

[5] = Aqueous solubility at RT, Example 2 (water aliquot addition up to 1600 μL); assay type: physicochemical; conditions: for dissolution in water: water aliquots up to 1600 μL; for dissolution in water after heating: suspension in 1600 μL water heated to 50° C. for 15 min
Procedure: Aqueous solubility was determined for the anhydrous and hydrated salt forms, as well as for the salts found after the stability study. Aliquots of water were added to the solid salts until dissolution occurred or 1600 μL of water was added. The lactate salt was taken along in the solubility studies as a reference. […] The results (in mg/mL free base dissolved for better comparison between salt forms) of the solubility determination performed in water are reported in Table 9.
Upon completion of the solubility determination, the remaining solids were separated from the liquid phases and allowed to air dry. Dried solids were analyzed by HT-XRPD.

[6] = Crystallinity of salt forms by HT-XRPD; assay type: physicochemical; conditions: salt screen solid forms
Procedure: as §1
XRPD patterns were obtained using the Ardena T2 high-throughput XRPD set-up. The plates were mounted on a Bruker General Area Detector Diffraction System (GADDS) equipped with a VÅNTEC-500 gas area detector corrected for intensity and geometric variations. The calibration of the measurement accuracy (peaks position) was performed using NIST SRM1976 standard (Corundum).
No background subtraction or curve smoothing was applied to the XRPD patterns.

[7] = Thermal stability of benzamil in solution (UPLC MS); assay type: physicochemical; conditions: ethanol, ~0.5 mg/mL, 1 h
Procedure: The thermal stability of benzamil was evaluated in three solvent systems: acetonitrile:water 1:1, ethanol, and 0.1 M HCl. Solutions of benzamil (˜0.5 mg/mL) were prepared in the selected solvents and split over 3 vials. The solutions were stirred at room temperature, 50° C. and 80° C. for one hour and then analyzed by UPLC MS. The chemical purity of benzamil measured in the solutions incubated at 50° C. and 80° C. for 1 h was compared to that measured initially in the starting solutions.

[8] = Qualitative solubility of benzamil free base in solvents (aliquot addition); assay type: physicochemical

CC(=O)O.NC(=NC(=O)c1nc(Cl)c(N)nc1N)NCc1ccccc1 [ACA1]
water vapour uptake ([1]; 25° C./80% RH, first adsorption cycle): 0.1% | classification of hygroscopic behaviour ([1]; based on water vapour uptake at 25° C./80% RH): non hygroscopic | Water solubility ([2]; Example 1, RT, aliquot addition (ranges) or HPLC after 24 h, not in Table 3): 15 to 19 mg/mL | Physically stable after AAC ([3]; Example 1, 40° C./75% RH for 2 days): physically stable and Yes | Polymorphism [4]: Yes

CCCC(=O)O.NC(=NC(=O)c1nc(Cl)c(N)nc1N)NCc1ccccc1 [BUT1]
dissolution in water ([5]; RT): Full dissolution | Physical Stability [3]: Stable | physical stability upon exposure to AAC ([3]; 40° C./75% RH for 2 days): physically stable | Crystallinity [6]: Good

NC(=NCc1ccccc1)NC(=O)c1nc(Cl)c(N)nc1N [Benzamil free base, 3,5-diamino-N—(N′-benzylcarbamimidoyl)-6-chloropyrazine-2-carboxamide]
Water solubility [2]: practically insoluble | solubility at 24 h ([2]; water, thermodynamic from solid): < 100 µg/mL | chemical stability in solution ([7]; 50° C.): stable | chemical stability in solution ([7]; 80° C.): some chemical degradation was observed | Polymorphism [4]: Yes | qualitative solubility ([8]; 1,2-dimethoxyethane): slightly soluble | effect of temperature on solubility ([8]; THF suspension, 50° C. for 30 min): slightly improved the solubility | qualitative solubility ([8]; methanol): slightly soluble | qualitative solubility ([8]; most of the tested solvents (ethanol, water, 1,4-dioxane, acetonitrile, TBME, heptane, ethylacetate, THF), approximately 3 mg/mL): insoluble

NC(=NC(=O)c1nc(Cl)c(N)nc1N)NCc1ccccc1.O=CO [FOR3]
dissolution in water after heating [5]: dissolved | Crystallinity [6]: Good

Br.N=C(NCc1ccccc1)NC(=O)c1nc(Cl)c(N)nc1N [HBR1]
dissolution in water after heating [5]: dissolved | Physical Stability [3]: Stable | physical stability upon exposure to AAC ([3]; 40° C./75% RH for 2 days): physically stable | Crystallinity [6]: Moderate

NC(=NC(=O)c1nc(Cl)c(N)nc1N)NCc1ccccc1.O=C(O)CC(=O)O [MAO1]
dissolution in water after heating [5]: dissolved | Physical Stability [3]: Stable | physical stability upon exposure to AAC ([3]; 40° C./75% RH for 2 days): physically stable | Crystallinity [6]: Good

CS(=O)(=O)O.NC(=NC(=O)c1nc(Cl)c(N)nc1N)NCc1ccccc1 [MES1]
aqueous solubility compared with starting material (LAC1) ([5]; RT): better solubility value than the starting material (LAC1) | behaviour after full dissolution in water ([5]; RT): precipitation was observed after full dissolution | dissolution in water ([5]; RT): Full dissolution | behaviour in repeated aqueous solubility determination ([5]; aiming for 50 mg/ml, RT): quickly dissolved at RT and after 15 min it crashed out again as a white solid | Physical Stability [3]: Stable | physical stability upon exposure to AAC ([3]; 40° C./75% RH for 2 days): physically stable | Crystallinity [6]: Good

Cl.NC(=NC(=O)c1nc(Cl)c(N)nc1N)NCc1ccccc1 [Mono-HCl (ref)]
Concentration FB [2]: 2.4 to 3.0 mg/mL

CCC(=O)O.NC(=NC(=O)c1nc(Cl)c(N)nc1N)NCc1ccccc1 [PRO2]
dissolution in water after heating [5]: dissolved | Crystallinity [6]: Moderate
